Test results published in ChEMBL document CHEMBL1201862, “PubChem BioAssay data set” (2004).
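Grown in 96-well plates, cells were treated for 48 hours with each compound at five concentrations. Insufficient inhibition: endpoint recorded as highest concentration tested. GI50 = concentration required for 50% inhibition of growth.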 Activity calls are given as the source filed them. No stated cut-off is given here; in the data, active = GI50 up to about 1.1 µM and inactive = higher.

Tests used:
Assay in all cases: NCI-60 cell line screen, 48 h
[1] = tested on: Malme-3M
[2] = tested on: A549
[3] = tested on: CCRF-CEM
[4] = tested on: SK-MEL-2
[5] = tested on: SNB-75
[6] = tested on: SNB-19
[7] = tested on: OVCAR-4
[8] = tested on: DLD-1
[9] = tested on: LXFL 529
[10] = tested on: LOX IMVI
[11] = tested on: NCI-H226
[12] = tested on: SF-268
[13] = tested on: UACC-62
[14] = tested on: K562
[15] = tested on: HOP-92
[16] = tested on: HCC 2998
[17] = tested on: NCI-H522
[18] = tested on: SN12C
[19] = tested on: 786-0
[20] = tested on: UACC-257
[21] = tested on: SK-MEL-28
[22] = tested on: M19-MEL
[23] = tested on: IGROV-1
[24] = tested on: RXF 393
[25] = tested on: CAKI-1
[26] = tested on: SK-OV-3
[27] = tested on: SF-295
[28] = tested on: SW-620
[29] = tested on: HL-60
[30] = tested on: OVCAR-3
[31] = tested on: KM-20L2
[32] = tested on: HT-29
[33] = tested on: EKVX
[34] = tested on: COLO 205
[35] = tested on: HOP-62
[36] = tested on: OVCAR-5
[37] = tested on: XF498
[38] = tested on: NCI-H23
[39] = tested on: RPMI-8226
[40] = tested on: TK-10
[41] = tested on: SF-539
[42] = tested on: ACHN
[43] = tested on: M14
[44] = tested on: HCT-116
[45] = tested on: Hs-578T
[46] = tested on: HCT-15
[47] = tested on: T47D
[48] = tested on: MDA-MB-435
[49] = tested on: KM12
[50] = tested on: OVCAR-8
[51] = tested on: A498
[52] = tested on: MDA-MB-231
[53] = tested on: SK-MEL-5
[54] = tested on: SR
[55] = tested on: MCF7
[56] = tested on: NCI/ADR-RES
[57] = tested on: MOLT-4
[58] = tested on: DU-145
[59] = tested on: MDA-N
[60] = tested on: NCI-H460
[61] = tested on: U-251
[62] = tested on: PC-3
[63] = tested on: BT-549
[64] = tested on: UO-31

CN(C)/N=C(\CCN1CCCC1)CC(c1ccccc1)c1c(O)c2ccccc2oc1=O (stereo not drawn)
GI50 [1]: > 100000 nM (inactive) | GI50 [2]: > 100000 nM (inactive) | GI50 [3]: > 100000 nM (inactive) | GI50 [4]: > 100000 nM (inactive) | GI50 [5]: 58200 nM (inactive) | GI50 [6]: > 100000 nM (inactive) | GI50 [7]: > 100000 nM (inactive) | GI50 [8]: > 100000 nM (inactive) | GI50 [9]: > 100000 nM (inactive) | GI50 [10]: > 100000 nM (inactive) | GI50 [11]: > 100000 nM (inactive) | GI50 [12]: > 100000 nM (inactive) | GI50 [13]: > 100000 nM (inactive) | GI50 [14]: > 100000 nM (inactive) | GI50 [15]: > 100000 nM (inactive) | GI50 [16]: > 100000 nM (inactive) | GI50 [17]: > 100000 nM (inactive) | GI50 [18]: > 100000 nM (inactive) | GI50 [19]: > 100000 nM (inactive) | GI50 [20]: > 100000 nM (inactive) | GI50 [21]: > 100000 nM (inactive) | GI50 [22]: > 100000 nM (inactive) | GI50 [23]: > 100000 nM (inactive) | GI50 [24]: > 100000 nM (inactive) | GI50 [25]: > 100000 nM (inactive) | GI50 [26]: > 100000 nM (inactive) | GI50 [27]: > 100000 nM (inactive) | GI50 [28]: > 100000 nM (inactive) | GI50 [29]: 25200 nM (inactive) | GI50 [30]: > 100000 nM (inactive) | GI50 [31]: > 100000 nM (inactive) | GI50 [32]: > 100000 nM (inactive) | GI50 [33]: > 100000 nM (inactive) | GI50 [34]: > 100000 nM (inactive) | GI50 [35]: > 100000 nM (inactive) | GI50 [36]: > 100000 nM (inactive) | GI50 [37]: > 100000 nM (inactive) | GI50 [38]: > 100000 nM (inactive) | GI50 [39]: > 100000 nM (inactive) | GI50 [40]: > 100000 nM (inactive) | GI50 [41]: > 100000 nM (inactive) | GI50 [42]: > 100000 nM (inactive) | GI50 [43]: > 100000 nM (inactive) | GI50 [44]: > 100000 nM (inactive)

CN(C)c1ccc(C=c2c3ccccc3n3c2c2c([n+]3C)CCCC2)cc1
GI50 [1]: 170 nM (active) | GI50 [2]: 72.8 nM (active) | GI50 [3]: 46.5 nM (active) | GI50 [45]: 351 nM (active) | GI50 [46]: 1870 nM | GI50 [47]: 19.1 nM (active) | GI50 [4]: 173 nM (active) | GI50 [5]: 79.6 nM (active) | GI50 [6]: 69.8 nM (active) | GI50 [7]: 255 nM (active) | GI50 [10]: 143 nM (active) | GI50 [11]: 447 nM (active) | GI50 [12]: 183 nM (active) | GI50 [13]: 420 nM (active) | GI50 [14]: 23 nM (active) | GI50 [15]: 46 nM (active) | GI50 [16]: 79.2 nM (active) | GI50 [17]: 161 nM (active) | GI50 [18]: 146 nM (active) | GI50 [19]: 261 nM (active) | GI50 [48]: 109 nM (active) | GI50 [20]: 301 nM (active) | GI50 [21]: 542 nM (active) | GI50 [49]: 68.1 nM (active) | GI50 [23]: 138 nM (active) | GI50 [50]: 128 nM (active) | GI50 [51]: 247 nM (active) | GI50 [24]: 106 nM (active) | GI50 [25]: 908 nM (active) | GI50 [52]: 575 nM (active) | GI50 [26]: 320 nM (active) | GI50 [27]: 99.1 nM (active) | GI50 [28]: 118 nM (active) | GI50 [29]: 75 nM (active) | GI50 [30]: 152 nM (active) | GI50 [32]: 114 nM (active) | GI50 [53]: 68.7 nM (active) | GI50 [33]: 22.7 nM (active) | GI50 [54]: 23.3 nM (active) | GI50 [34]: 30.1 nM (active) | GI50 [35]: 165 nM (active) | GI50 [55]: 49.1 nM (active) | GI50 [36]: 463 nM (active) | GI50 [56]: 3170 nM (inactive) | GI50 [57]: 116 nM (active) | GI50 [38]: 269 nM (active) | GI50 [58]: 245 nM (active) | GI50 [39]: 35.2 nM (active) | GI50 [59]: 100 nM (active) | GI50 [40]: 207 nM (active) | GI50 [41]: 165 nM (active) | GI50 [42]: 314 nM (active) | GI50 [60]: 110 nM (active) | GI50 [61]: 22.3 nM (active) | GI50 [62]: 219 nM (active) | GI50 [43]: 208 nM (active) | GI50 [63]: 186 nM (active) | GI50 [64]: 1120 nM (inactive) | GI50 [44]: 53.7 nM (active)
